Data as given in the kinase profiling compilation of Christmann-Franck et al. (2016).

Tests used:
Experiment in all cases: radiometric filter-binding kinase assay, Kinaseprofiler
RIPK2 (human) = RIPK2 (human) (UniProt O43353); conditions: compound 1.0 µM; ATP 120 µM
MAPK13 (human) = MAPK13 (human) (UniProt O15264); conditions: compound 1.0 µM; ATP 15 µM
[1] = system: RPS6KB1 (human), P23443 [T412E]; conditions: compound 1.0 µM; ATP 15 µM
PRKCZ (human) = PRKCZ (human) (UniProt Q05513); conditions: compound 1.0 µM; ATP 15 µM
PRKCA (human) = PRKCA (human) (UniProt P17252); conditions: compound 1.0 µM; ATP 45 µM
MAP2K6 (human) = MAP2K6 (human) (UniProt P52564); conditions: compound 1.0 µM; ATP 10 µM
PTK6 (human) = PTK6 (human) (UniProt Q13882); conditions: compound 1.0 µM; ATP 15 µM
EPHA5 (human) = EPHA5 (human) (UniProt P54756); conditions: compound 1.0 µM; ATP 10 µM
MAP2K7 (human) = MAP2K7 (human) (UniProt O14733); conditions: compound 1.0 µM; ATP 10 µM
EPHA7 (human) = EPHA7 (human) (UniProt Q15375); conditions: compound 1.0 µM; ATP 90 µM
CDK3 CCNE1 (human) = CDK3 CCNE1 (human) (UniProt Q00526+P24864); conditions: compound 1.0 µM; ATP 200 µM
SRPK1 (human) = SRPK1 (human) (UniProt Q96SB4); conditions: compound 1.0 µM; ATP 10 µM
TYRO3 (human) = TYRO3 (human) (UniProt Q06418); conditions: compound 1.0 µM; ATP 45 µM
FGFR3 (human) = FGFR3 (human) (UniProt P22607); conditions: compound 1.0 µM; ATP 15 µM
CDC42BPB (human) = CDC42BPB (human) (UniProt Q9Y5S2); conditions: compound 1.0 µM; ATP 10 µM
EGFR (human) = EGFR (human) (UniProt P00533); conditions: compound 1.0 µM; ATP 10 µM
MAPK3 (human) = MAPK3 (human) (UniProt P27361); conditions: compound 1.0 µM; ATP 70 µM
PRKCE (human) = PRKCE (human) (UniProt Q02156); conditions: compound 1.0 µM; ATP 45 µM
[2] = system: DDR2 (human), Q16832 [S642A]; conditions: compound 1.0 µM; ATP 200 µM
[3] = system: AXL (human), P30530 [Q764R]; conditions: compound 1.0 µM; ATP 90 µM
PASK (human) = PASK (human) (UniProt Q96RG2); conditions: compound 1.0 µM; ATP 15 µM
[4] = system: IRAK4 (human), Q9NWZ3 [A81V]; conditions: compound 1.0 µM; ATP 200 µM
STK10 (human) = STK10 (human) (UniProt O94804); conditions: compound 1.0 µM; ATP 200 µM
STK17A (human) = STK17A (human) (UniProt Q9UEE5); conditions: compound 1.0 µM; ATP 10 µM
PLK2 (human) = PLK2 (human) (UniProt Q9NYY3); conditions: compound 1.0 µM; ATP 120 µM
[5] = system: EGFR (human), P00533 [L858R]; conditions: compound 1.0 µM; ATP 10 µM
EPHB3 (human) = EPHB3 (human) (UniProt P54753); conditions: compound 1.0 µM; ATP 90 µM
INSR (human) = INSR (human) (UniProt P06213); conditions: compound 1.0 µM; ATP 200 µM
DAPK3 (human) = DAPK3 (human) (UniProt O43293); conditions: compound 1.0 µM; ATP 15 µM
IKBKB (human) = IKBKB (human) (UniProt O14920); conditions: compound 1.0 µM; ATP 10 µM
[6] = system: EGFR (human), P00533 [L861Q]; conditions: compound 1.0 µM; ATP 10 µM
IGF1R (human) = IGF1R (human) (UniProt P08069); conditions: compound 1.0 µM; ATP 200 µM
WNK2 (human) = WNK2 (human) (UniProt Q9Y3S1); conditions: compound 1.0 µM; ATP 200 µM
TBK1 (human) = TBK1 (human) (UniProt Q9UHD2); conditions: compound 1.0 µM; ATP 155 µM
[7] = system: PRKCH (human), P24723 [V108L/G109R/L392Q]; conditions: compound 1.0 µM; ATP 45 µM
MAP3K9 (human) = MAP3K9 (human) (UniProt P80192); conditions: compound 1.0 µM; ATP 45 µM
FER (human) = FER (human) (UniProt P16591); conditions: compound 1.0 µM; ATP 70 µM
BRSK1 (human) = BRSK1 (human) (UniProt Q8TDC3); conditions: compound 1.0 µM; ATP 200 µM
DAPK2 (human) = DAPK2 (human) (UniProt Q9UIK4); conditions: compound 1.0 µM; ATP 10 µM
DAPK2 (human), sequence (Q9UIK4 whole entry, looked up): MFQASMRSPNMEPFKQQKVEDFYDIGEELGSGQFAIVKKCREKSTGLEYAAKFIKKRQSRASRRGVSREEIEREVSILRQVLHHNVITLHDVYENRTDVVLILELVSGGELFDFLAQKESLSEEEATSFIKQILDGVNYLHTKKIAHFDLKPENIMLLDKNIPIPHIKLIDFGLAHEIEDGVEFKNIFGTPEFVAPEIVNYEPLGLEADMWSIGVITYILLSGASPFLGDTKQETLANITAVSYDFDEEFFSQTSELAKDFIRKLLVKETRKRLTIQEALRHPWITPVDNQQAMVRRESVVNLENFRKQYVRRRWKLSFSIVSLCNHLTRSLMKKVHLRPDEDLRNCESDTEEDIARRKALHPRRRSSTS

CDC42BPB (human), sequence (Q9Y5S2 whole entry, looked up): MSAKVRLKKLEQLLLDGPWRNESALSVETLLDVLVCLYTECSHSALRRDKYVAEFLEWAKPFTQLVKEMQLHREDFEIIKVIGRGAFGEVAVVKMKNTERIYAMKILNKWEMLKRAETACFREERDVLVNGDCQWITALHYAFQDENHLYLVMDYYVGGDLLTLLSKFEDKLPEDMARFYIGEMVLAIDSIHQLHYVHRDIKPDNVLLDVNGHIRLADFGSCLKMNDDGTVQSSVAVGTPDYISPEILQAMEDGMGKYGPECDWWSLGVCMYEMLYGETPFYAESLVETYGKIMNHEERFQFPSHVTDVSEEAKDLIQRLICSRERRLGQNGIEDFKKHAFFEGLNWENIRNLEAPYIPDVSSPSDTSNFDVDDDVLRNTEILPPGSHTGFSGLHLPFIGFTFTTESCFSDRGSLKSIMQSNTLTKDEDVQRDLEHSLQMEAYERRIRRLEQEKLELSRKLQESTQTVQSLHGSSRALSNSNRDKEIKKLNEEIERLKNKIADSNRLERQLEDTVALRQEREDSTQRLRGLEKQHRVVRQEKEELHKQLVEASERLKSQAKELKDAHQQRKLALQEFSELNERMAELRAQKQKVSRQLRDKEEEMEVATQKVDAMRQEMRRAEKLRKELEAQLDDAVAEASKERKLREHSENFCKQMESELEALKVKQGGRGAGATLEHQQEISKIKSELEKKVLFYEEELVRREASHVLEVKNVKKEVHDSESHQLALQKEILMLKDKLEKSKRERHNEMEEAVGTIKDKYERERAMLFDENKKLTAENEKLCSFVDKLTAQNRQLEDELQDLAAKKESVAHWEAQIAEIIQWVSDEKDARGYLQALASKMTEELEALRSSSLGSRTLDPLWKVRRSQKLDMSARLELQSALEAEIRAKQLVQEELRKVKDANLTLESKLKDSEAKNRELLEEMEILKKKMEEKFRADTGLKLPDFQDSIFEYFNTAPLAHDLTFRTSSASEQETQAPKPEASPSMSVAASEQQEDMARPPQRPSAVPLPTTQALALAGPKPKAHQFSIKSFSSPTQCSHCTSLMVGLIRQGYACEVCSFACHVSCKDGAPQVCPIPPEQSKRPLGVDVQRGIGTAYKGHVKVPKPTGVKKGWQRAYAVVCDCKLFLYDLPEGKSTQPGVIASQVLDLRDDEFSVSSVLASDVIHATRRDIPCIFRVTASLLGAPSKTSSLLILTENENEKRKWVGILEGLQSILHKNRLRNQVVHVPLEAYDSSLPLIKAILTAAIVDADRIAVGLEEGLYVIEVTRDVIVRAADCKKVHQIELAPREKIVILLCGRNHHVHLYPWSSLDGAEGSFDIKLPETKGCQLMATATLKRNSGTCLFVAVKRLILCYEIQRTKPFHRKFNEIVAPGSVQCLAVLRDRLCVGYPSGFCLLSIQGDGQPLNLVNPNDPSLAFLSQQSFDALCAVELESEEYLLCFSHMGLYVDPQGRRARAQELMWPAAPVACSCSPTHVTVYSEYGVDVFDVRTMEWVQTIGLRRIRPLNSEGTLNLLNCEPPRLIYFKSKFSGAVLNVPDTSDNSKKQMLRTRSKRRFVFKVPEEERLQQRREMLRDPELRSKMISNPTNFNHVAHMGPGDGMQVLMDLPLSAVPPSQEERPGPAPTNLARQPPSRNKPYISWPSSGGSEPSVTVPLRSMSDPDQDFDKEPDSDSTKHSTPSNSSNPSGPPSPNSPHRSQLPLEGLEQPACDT
PASK (human), sequence (Q96RG2 whole entry, looked up): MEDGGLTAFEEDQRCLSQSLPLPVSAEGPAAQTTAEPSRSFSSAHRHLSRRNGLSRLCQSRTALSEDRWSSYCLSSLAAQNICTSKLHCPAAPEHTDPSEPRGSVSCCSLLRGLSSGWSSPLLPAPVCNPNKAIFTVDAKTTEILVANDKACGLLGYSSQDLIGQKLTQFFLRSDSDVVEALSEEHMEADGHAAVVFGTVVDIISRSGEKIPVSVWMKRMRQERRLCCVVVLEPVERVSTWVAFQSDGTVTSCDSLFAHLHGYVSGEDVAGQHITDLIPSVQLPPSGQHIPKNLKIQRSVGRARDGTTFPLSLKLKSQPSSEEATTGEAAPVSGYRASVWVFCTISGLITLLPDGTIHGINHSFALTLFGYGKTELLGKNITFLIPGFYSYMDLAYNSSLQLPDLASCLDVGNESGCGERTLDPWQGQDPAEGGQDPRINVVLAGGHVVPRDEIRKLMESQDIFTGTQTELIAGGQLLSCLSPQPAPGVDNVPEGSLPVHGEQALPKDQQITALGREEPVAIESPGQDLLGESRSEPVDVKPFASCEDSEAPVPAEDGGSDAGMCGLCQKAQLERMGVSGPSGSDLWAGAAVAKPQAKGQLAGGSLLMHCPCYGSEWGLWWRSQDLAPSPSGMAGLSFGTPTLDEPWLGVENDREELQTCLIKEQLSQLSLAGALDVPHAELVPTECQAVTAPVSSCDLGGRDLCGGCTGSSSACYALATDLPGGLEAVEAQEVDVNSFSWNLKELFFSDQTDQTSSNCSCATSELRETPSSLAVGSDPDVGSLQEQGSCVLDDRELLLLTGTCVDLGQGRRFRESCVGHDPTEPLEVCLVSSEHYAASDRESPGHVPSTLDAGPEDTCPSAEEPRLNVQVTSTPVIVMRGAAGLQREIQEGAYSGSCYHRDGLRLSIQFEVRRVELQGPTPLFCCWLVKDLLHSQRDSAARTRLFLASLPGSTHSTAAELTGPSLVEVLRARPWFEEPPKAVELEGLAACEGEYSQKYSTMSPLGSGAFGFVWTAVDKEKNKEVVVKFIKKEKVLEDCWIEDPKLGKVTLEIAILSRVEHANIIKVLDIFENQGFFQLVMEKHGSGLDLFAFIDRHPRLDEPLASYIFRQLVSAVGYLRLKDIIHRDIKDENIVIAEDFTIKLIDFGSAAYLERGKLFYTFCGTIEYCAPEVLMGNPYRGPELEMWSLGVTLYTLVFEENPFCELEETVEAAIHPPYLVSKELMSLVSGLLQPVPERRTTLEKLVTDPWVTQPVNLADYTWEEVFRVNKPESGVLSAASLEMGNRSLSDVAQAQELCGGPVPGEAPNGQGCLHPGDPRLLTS
BRSK1 (human), sequence (Q8TDC3 whole entry, looked up): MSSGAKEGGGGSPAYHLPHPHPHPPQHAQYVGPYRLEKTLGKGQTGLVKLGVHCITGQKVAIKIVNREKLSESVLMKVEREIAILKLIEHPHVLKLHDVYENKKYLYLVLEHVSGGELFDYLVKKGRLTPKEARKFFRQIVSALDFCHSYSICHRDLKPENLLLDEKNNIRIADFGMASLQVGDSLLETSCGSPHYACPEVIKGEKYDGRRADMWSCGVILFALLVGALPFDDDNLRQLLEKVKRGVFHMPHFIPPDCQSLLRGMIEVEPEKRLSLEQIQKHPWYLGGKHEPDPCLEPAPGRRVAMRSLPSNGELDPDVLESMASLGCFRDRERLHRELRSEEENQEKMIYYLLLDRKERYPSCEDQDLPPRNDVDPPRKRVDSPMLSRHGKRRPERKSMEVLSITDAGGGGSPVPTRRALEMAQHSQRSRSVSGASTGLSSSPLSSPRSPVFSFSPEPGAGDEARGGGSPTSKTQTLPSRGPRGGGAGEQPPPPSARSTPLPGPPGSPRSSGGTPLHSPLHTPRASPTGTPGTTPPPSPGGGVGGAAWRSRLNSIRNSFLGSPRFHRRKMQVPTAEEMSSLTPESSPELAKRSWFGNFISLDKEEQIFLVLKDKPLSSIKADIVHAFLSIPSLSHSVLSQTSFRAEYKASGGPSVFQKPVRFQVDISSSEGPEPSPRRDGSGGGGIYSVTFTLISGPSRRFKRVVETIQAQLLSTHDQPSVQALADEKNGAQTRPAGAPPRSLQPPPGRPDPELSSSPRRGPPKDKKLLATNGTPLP
TYRO3 (human), sequence (Q06418 whole entry, looked up): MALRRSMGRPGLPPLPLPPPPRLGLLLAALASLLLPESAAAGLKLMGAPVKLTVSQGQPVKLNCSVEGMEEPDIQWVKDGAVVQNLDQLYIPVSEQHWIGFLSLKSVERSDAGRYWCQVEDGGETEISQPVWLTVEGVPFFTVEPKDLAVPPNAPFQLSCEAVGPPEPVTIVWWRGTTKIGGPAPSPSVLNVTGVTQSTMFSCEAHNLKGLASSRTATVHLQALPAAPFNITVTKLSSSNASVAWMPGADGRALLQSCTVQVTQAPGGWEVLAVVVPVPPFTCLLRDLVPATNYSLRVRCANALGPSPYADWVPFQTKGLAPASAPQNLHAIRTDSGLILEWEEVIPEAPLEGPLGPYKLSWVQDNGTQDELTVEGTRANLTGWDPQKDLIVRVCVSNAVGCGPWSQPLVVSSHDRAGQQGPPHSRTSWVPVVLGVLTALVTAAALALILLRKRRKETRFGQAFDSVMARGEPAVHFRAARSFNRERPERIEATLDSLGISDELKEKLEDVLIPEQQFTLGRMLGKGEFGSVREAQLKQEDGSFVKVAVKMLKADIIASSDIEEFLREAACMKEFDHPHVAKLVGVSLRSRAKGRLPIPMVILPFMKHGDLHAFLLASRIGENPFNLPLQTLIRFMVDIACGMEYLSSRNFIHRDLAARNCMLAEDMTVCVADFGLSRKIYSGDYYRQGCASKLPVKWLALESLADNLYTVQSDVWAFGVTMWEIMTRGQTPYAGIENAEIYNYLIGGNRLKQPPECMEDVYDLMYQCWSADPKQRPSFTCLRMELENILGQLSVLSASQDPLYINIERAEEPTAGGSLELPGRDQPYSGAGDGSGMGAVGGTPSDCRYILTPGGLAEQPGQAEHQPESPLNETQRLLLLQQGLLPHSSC

residual activity (RIPK2 (human)): 35% | residual activity (MAPK13 (human)): 98% | residual activity [1]: 81% | residual activity (PRKCZ (human)): 95% | residual activity (PRKCA (human)): 105% | residual activity (MAP2K6 (human)): 117% | residual activity (PTK6 (human)): 103% | residual activity (EPHA5 (human)): 102% | residual activity (MAP2K7 (human)): 69% | residual activity (EPHA7 (human)): 101% | residual activity (CDK3 CCNE1 (human)): 100% | residual activity (SRPK1 (human)): 102% | residual activity (TYRO3 (human)): 97% | residual activity (FGFR3 (human)): 4% | residual activity (CDC42BPB (human)): 94% | residual activity (EGFR (human)): 100% | residual activity (MAPK3 (human)): 120% | residual activity (PRKCE (human)): 103% | residual activity [2]: 108% | residual activity [3]: 17% | residual activity (PASK (human)): 91% | residual activity [4]: 14% | residual activity (STK10 (human)): 78% | residual activity (STK17A (human)): 0% | residual activity (PLK2 (human)): 58% | residual activity [5]: 41% | residual activity (EPHB3 (human)): 98% | residual activity (INSR (human)): 109% | residual activity (DAPK3 (human)): 87% | residual activity (IKBKB (human)): 98% | residual activity [6]: 97% | residual activity (IGF1R (human)): 101% | residual activity (WNK2 (human)): 126% | residual activity (TBK1 (human)): 93% | residual activity [7]: 126% | residual activity (MAP3K9 (human)): 61% | residual activity (FER (human)): 56% | residual activity (BRSK1 (human)): 74% | residual activity (DAPK2 (human)): 91%
Compound: CN(C)S(=O)(=O)Nc1ccc2ccc3ncc(-c4cnn(C)c4)cc3c(=O)c2c1
